Assay results published in US20240368173A1, “TRICYCLIC GPR65 MODULATORS” (PATHIOS THERAPEUTICS LIMITED, priority 2021, published 2024).

What follows are molecules tested against human recombinant GPR65 (Homo sapiens, UniProt Q8IYL9) (assay: Human GPR65 cAMP HTRF antagonist assay). Settings: not given.
Type: cell-based
Outline: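 Antagonism measured as suppression of the cAMP rise when pH is dropped to 7.2 (control wells pH 7.9) in 1321N1 cells stably carrying human GPR65. Cells in KRH with 1 mM IBMX and 200 μM EDTA saw compound 30 min, then acid stimulation 30 min; HTRF cAMP detection, normalised, 4-parameter logistic IC50.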

human recombinant GPR65, sequence (Q8IYL9 whole entry): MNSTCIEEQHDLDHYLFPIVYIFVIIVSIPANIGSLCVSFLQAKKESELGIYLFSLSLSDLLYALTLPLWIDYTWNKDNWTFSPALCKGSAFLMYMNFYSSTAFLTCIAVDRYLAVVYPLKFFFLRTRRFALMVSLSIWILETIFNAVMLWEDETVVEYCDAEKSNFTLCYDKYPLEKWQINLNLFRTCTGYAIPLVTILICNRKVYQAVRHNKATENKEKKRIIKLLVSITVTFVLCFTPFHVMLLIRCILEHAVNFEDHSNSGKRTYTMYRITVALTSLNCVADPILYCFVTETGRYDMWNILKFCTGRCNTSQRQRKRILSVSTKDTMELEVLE

Compound | IC50 [nM]
O=C(Nc1cc(Br)c(Cl)cc1F)N1[C@H]2CC[C@@H]1c1n[nH]c(=O)cc1C2 [Compound 37, (6S,9R)-N-(5-Bromo-4-chloro-2-fluorophenyl)-3-oxo-3,5,6,7,8,9-hexahydro-2H-6,9-epiminocyclohepta[c]pyridazine-10-carboxamide] | < 500
COc1ccc(-c2cc(F)c(NC(=O)N3[C@H]4CC[C@@H]3c3n[nH]c(=O)cc3C4)cc2Cl)c(F)n1 [Compound 202, (6S,9R)-N-(5-Chloro-2-fluoro-4-(2-fluoro-6-methoxypyridin-3-yl)phenyl)-3-oxo-3,5,6,7,8,9-hexahydro-2H-6,9-epiminocyclohepta[c]pyridazine-10-carboxamide] | < 500
O=C(Nc1nnc(C2CCCCC2)s1)N1[C@H]2CC[C@@H]1c1ccnc(F)c1C2 [Compound 285, (5R,8S)—N-(5-cyclohexyl-1,3,4-thiadiazol-2-yl)-1-fluoro-6,7,8,9-tetrahydro-5H-5,8-epiminocyclohepta[c]pyridine-10-carboxamide] | < 500
C[C@@]12CC[C@@H](Cc3c1ccnc3F)N2C(=O)Nc1cc(Cl)c(Cl)cc1F [Compound 103, (5R,8S)-N-(4,5-Dichloro-2-fluorophenyl)-1-fluoro-5-methyl-6,7,8,9-tetrahydro-5H-5,8-epiminocyclohepta[c]pyridine-10-carboxamide] | < 500
CO[C@H]1C[C@H](Oc2ccc(-c3cc(F)c(NC(=O)N4[C@H]5CC[C@@H]4c4n[nH]c(=O)cc4C5)cc3Cl)cn2)C1 [Compound 306, (6S,9R)-N-(5-Chloro-2-fluoro-4-(6-((1r,3R)-3-methoxycyclobutoxy)pyridin-3-yl)phenyl)-3-oxo-3,5,6,7,8,9-hexahydro-2H-6,9-epiminocyclohepta[c]pyridazine-10-carboxamide] | < 500
O=C(Nc1ccc(Br)c(Cl)c1)N1C2CCC1c1n[nH]c(=O)cc1C2 (racemic) [Compound 4, (±)-N-(4-Bromo-3-chlorophenyl)-3-oxo-3,5,6,7,8,9-hexahydro-2H-6,9-epiminocyclohepta[c]pyridazine-10-carboxamide] | < 500
O=C(Nc1cc(Cl)c(COc2ccccc2)cc1F)N1[C@H]2CC[C@@H]1c1n[nH]c(=O)cc1C2 [Compound 235, (6S,9R)-N-(5-Chloro-2-fluoro-4-(phenoxymethyl)phenyl)-3-oxo-3,5,6,7,8,9-hexahydro-2H-6,9-epiminocyclohepta[c]pyridazine-10-carboxamide] | < 500
O=C(Nc1cc(Cl)c(-c2ccc(F)nc2)cc1F)N1[C@H]2CC[C@@H]1c1c[nH]c(=O)cc1C2 [Compound 172, (6S,9R)-N-(5-Chloro-2-fluoro-4-(6-fluoropyridin-3-yl)phenyl)-3-oxo-3,5,6,7,8,9-hexahydro-2H-6,9-epiminocyclohepta[c]pyridine-10-carboxamide] | < 500
Cn1ncc(-c2cc(F)c(NC(=O)N3[C@H]4CC[C@@H]3c3n[nH]c(=O)cc3C4)cc2Cl)n1 [Compound 139, (6S,9R)-N-(5-Chloro-2-fluoro-4-(2-methyl-2H-1,2,3-triazol-4-yl)phenyl)-3-oxo-3,5,6,7,8,9-hexahydro-2H-6,9-epiminocyclohepta[c]pyridazine-10-carboxamide] | < 500
O=C(Nc1cc(Cl)c(Br)cc1F)N1[C@H]2CC[C@@H]1c1c[nH]c(=O)nc1C2 [Compound 23, (5R,8S)-N-(4-Bromo-5-chloro-2-fluorophenyl)-2-oxo-3,5,6,7,8,9-hexahydro-2H-5,8-epiminocyclohepta[d]pyrimidine-10-carboxamide] | < 500
O=C(Nc1cc(I)c(Cl)cc1F)N1[C@H]2CC[C@@H]1c1c[nH]c(=O)cc1C2 [Compound 80, (6S,9R)-N-(4-Chloro-2-fluoro-5-iodophenyl)-3-oxo-3,5,6,7,8,9-hexahydro-2H-6,9-epiminocyclohepta[c]pyridine-10-carboxamide] | 500 to 5000
CNc1cnc(F)c2c1[C@H]1CC[C@@H](C2)N1C(=O)Nc1cc(Cl)c(Cl)cc1F [Compound 159, (5R,8S)—N-(4,5-dichloro-2-fluorophenyl)-1-fluoro-4-(methylamino)-6,7,8,9-tetrahydro-5H-5,8-epiminocyclohepta[c]pyridine-10-carboxamide] | < 500
O=C(Nc1cc(-c2ccccc2)on1)N1[C@H]2CC[C@@H]1c1n[nH]c(=O)cc1C2 [Compound 166, (6S,9R)-3-Oxo-N-(5-phenylisoxazol-3-yl)-3,5,6,7,8,9-hexahydro-2H-6,9-epiminocyclohepta[c]pyridazine-10-carboxamide] | < 500
N#Cc1cc(NC(=O)N2C3CCC2c2n[nH]c(=O)cc2C3)ccc1C(F)(F)F (racemic) [Compound 11, (±)-N-(3-Cyano-4-(trifluoromethyl)phenyl)-3-oxo-3,5,6,7,8,9-hexahydro-2H-6,9-epiminocyclohepta[c]pyridazine-10-carboxamide] | < 500
O=C1Cc2ccc(-c3cc(F)c(NC(=O)N4[C@H]5CC[C@@H]4c4n[nH]c(=O)cc4C5)cc3Cl)cc2N1 [Compound 153, (6S,9R)-N-(5-Chloro-2-fluoro-4-(2-oxoindolin-6-yl)phenyl)-3-oxo-3,5,6,7,8,9-hexahydro-2H-6,9-epiminocyclohepta[c]pyridazine-10-carboxamide] | < 500
O=C(Nc1cc(Cl)c(C(F)(F)F)cc1F)N1C2CCC1[C@H](F)c1c2ccnc1F (mixture of isomers) [Compound 157, (±)-(9R)—N-(5-Chloro-2-fluoro-4-(trifluoromethyl)phenyl)-1,9-difluoro-6,7,8,9-tetrahydro-5H-5,8-epiminocyclohepta[c]pyridine-10-carboxamide] | < 500
O=C(Nc1cc(Cl)c(Cl)cc1F)N1C2CCC1c1ccnnc1C2 (racemic) [Compound 84, (±)-N-(4,5-Dichloro-2-fluorophenyl)-6,7,8,9-tetrahydro-5H-5,8-epiminocyclohepta[c]pyridazine-10-carboxamide] | < 500

Same assay, conditions: 1321N1-hrGPR65 cells, cAMP HTRF, assay pH 7.2; read-out: hGPR65 IC50 (Activity of selected compounds according to the invention)

Compound | IC50 [nM]
O=C(Nc1cc(Cl)c(-c2cccc(CN3CCCC3)c2)cc1F)N1[C@H]2CC[C@@H]1c1n[nH]c(=O)cc1C2 [Compound 135, (6S,9R)-N-(2-Chloro-5-fluoro-3′-(pyrrolidin-1-ylmethyl)-[1,1′-biphenyl]-4-yl)-3-oxo-3,5,6,7,8,9-hexahydro-2H-6,9-epiminocyclohepta[c]pyridazine-10-carboxamide] | 500 to 5000
CNCCCOc1cnc(F)c2c1[C@H]1CC[C@@H](C2)N1C(=O)Nc1cc(Cl)c(C(F)(F)F)cc1F [Compound 161, (5R,8S)—N-(5-Chloro-2-fluoro-4-(trifluoromethyl)phenyl)-1-fluoro-4-(3-(methylamino)propoxy)-6,7,8,9-tetrahydro-5H-5,8-epiminocyclohepta[c]pyridine-10-carboxamide] | 500 to 5000
O=C1NCCc2cc(-c3cc(F)c(NC(=O)N4[C@H]5CC[C@@H]4c4n[nH]c(=O)cc4C5)cc3Cl)ccc21 [Compound 151, (6S,9R)-N-(5-Chloro-2-fluoro-4-(1-oxo-1,2,3,4-tetrahydroisoquinolin-6-yl)phenyl)-3-oxo-3,5,6,7,8,9-hexahydro-2H-6,9-epiminocyclohepta[c]pyridazine-10-carboxamide] | > 5000
O=C(Nc1cc(Cl)c(C(F)(F)F)cc1F)N1[C@@H]2CC[C@H]1c1c[nH]c(=O)nc1C2 [Compound 25, (5S,8R)-N-(5-Chloro-2-fluoro-4-(trifluoromethyl)phenyl)-2-oxo-3,5,6,7,8,9-hexahydro-2H-5,8-epiminocyclohepta[d]pyrimidine-10-carboxamide] | 500 to 5000
